Assay results reported in ChEMBL document CHEMBL5634084, “Design and optimization of selective and potent CDK9 inhibitors with flavonoid scaffold for the treatment of acute myeloid leukemia” (Eur J Med Chem, 2023).

Tests used:
CDK2/Cyclin A2 = CDK2/Cyclin A2 (Homo sapiens, UniProt P24941); test: Inhibition of CDK2/CyclinA2 (unknown origin) by ADP-Glo assay; assay type: protein-complex assay
[1] = Metabolic stability of the compound in mouse liver microsomes at 10 uM measured for 60 mins in presence of NADPH by LC-MS/MS analysis; assay type: ADME, Microsome; details: 1 h
[2] = target: Cyclin-dependent kinase 9 (Homo sapiens) (UniProt P50750); test: Inhibition of CDK9 in human MV4-11 cells assessed as reduction in RNA polymerase 2 phosphorylation at Ser2 residue incubated for 12 hrs by western blot analysis; assay type: cell-based; details: dose 0.1-4 µM
Chain of Cyclin-dependent kinase 9 (Homo sapiens) (P50750 whole entry): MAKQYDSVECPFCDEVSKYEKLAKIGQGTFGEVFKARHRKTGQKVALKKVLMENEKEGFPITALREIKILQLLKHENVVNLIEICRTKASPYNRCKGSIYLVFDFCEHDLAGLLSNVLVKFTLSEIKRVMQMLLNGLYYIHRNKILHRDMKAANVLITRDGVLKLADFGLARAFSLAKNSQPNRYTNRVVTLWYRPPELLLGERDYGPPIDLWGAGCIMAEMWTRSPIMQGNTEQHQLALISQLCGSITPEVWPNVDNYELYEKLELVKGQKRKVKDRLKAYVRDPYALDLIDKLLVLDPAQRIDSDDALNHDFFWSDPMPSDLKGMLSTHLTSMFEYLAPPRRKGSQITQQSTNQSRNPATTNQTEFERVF

[3] = Cytotoxicity against human HEK293 cells assessed as reduction in cell viability measured after 72 hrs; assay type: toxicity, cell-based
MV4-11 [4] = test: Induction of apoptosis in human MV4-11 cells assessed as viable cells at 4 uM incubated for 24 hrs by AnnexinV-FITC/PI staining based flow cytometry (reference value: 93.4%); assay type: functional; details: read-out: Activity
MV4-11 [5] = test: Induction of apoptosis in human MV4-11 cells assessed as late apoptotic cells at 1 uM incubated for 24 hrs by AnnexinV-FITC/PI staining based flow cytometry (reference value: 5.21%); assay type: functional
MV4-11 [6] = test: Induction of cell cycle arrest in human MV4-11 cells assessed as accumulation of cells at G2/M phase at 0.1 uM incubated fo 36 hrs by propidium iodide staining based flow cytometry (reference value: 9.5%); assay type: functional
[7] = target: Cyclin-dependent kinase 9 (Homo sapiens) (UniProt P50750); test: Inhibition of CDK9 in human MV4-11 cells assessed as reduction in c-Myc protein expression incubated for 12 hrs by western blot analysis; assay type: cell-based; details: dose 0.1-4 µM
MV4-11 [8] = test: Induction of cell cycle arrest in human MV4-11 cells assessed as accumulation of cells at S phase at 0.4 uM incubated fo 36 hrs by propidium iodide staining based flow cytometry (reference value: 26.5%); assay type: functional
CDK9/cyclin T1 = CDK9/cyclin T1 (Homo sapiens, UniProt P50750); test: Inhibition of CDK9/CyclinT1 (unknown origin) by ADP-Glo assay; assay type: protein-complex assay
Chain of CDK9/cyclin T1 (O60563 whole entry): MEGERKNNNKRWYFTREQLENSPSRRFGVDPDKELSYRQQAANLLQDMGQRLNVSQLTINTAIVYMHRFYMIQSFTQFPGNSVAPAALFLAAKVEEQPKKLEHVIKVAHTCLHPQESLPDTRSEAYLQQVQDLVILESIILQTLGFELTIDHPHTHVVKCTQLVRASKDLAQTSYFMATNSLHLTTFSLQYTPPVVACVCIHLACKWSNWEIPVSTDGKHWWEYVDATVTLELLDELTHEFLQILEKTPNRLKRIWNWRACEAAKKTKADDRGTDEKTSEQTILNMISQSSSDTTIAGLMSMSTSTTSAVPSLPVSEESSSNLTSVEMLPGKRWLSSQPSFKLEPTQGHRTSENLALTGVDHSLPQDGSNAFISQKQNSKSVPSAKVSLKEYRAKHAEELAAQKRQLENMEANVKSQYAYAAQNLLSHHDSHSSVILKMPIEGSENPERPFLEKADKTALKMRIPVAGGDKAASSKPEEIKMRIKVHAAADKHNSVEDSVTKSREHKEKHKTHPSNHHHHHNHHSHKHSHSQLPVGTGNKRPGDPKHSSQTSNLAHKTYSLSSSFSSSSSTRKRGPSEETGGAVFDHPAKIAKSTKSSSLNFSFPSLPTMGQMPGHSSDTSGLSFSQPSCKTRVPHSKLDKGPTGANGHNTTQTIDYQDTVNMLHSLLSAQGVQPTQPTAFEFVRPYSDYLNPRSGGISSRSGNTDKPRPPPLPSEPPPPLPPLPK
Chain of CDK9/cyclin T1 (P50750 whole entry): as the sequence (P50750 whole entry) above

MV4-11 [9] = test: Induction of apoptosis in human MV4-11 cells assessed as necrotic cells at 0.1 uM incubated for 24 hrs by AnnexinV-FITC/PI staining based flow cytometry (reference value: 0%); assay type: functional

SMILES: COc1cc(O)c2c(=O)cc(-c3ccc(N4CCN(C)CC4)cc3)oc2c1C1=CCN(C)CC1
- IC50 (CDK2/Cyclin A2): 0.533 µM
- Stability [1]: Stable
- inhibition [2]: Dose-Dependent Effect
- IC50 at 72 h [3]: 10.7 µM
- viability at 4 µM (MV4-11 [4]): 7.98%
- Activity (MV4-11 [5]): 20.9%
- Activity (MV4-11 [6]): 8.5%
- inhibition [7]: Dose-Dependent Effect
- Activity (MV4-11 [8]): 12.8%
- IC50 (CDK9/cyclin T1): 0.0067 µM
- Activity (MV4-11 [9]): 0.02%
